Where two headings read alike, the source gives them in different places.
Columns and labels:
[1] = cited from earlier work
[2] = design: species or system human; conditions: in vivo
Text: COAST was a 6-month, double-blind, block-randomized placebo-controlled study involving 81 healthy participants between 18 and 65 years old. Participant recruitment and assessment commenced on December 2017 and ended on December 2018. Recruitment was achieved through local media and advertisement at the Waterford Institute of Technology, local fitness centers, and with employees of an industry based in Waterford, Ireland. […] Every participant enrolled in the study provided written informed consent prior to commencement. The study protocol was approved May 2017 by the Research Ethics Committees of the Waterford Institute of Technology (Waterford, Ireland) and the HSE, South Eastern Area (University Hospital Waterford, Waterford, Ireland). Industrial Orgánica, S.A. de C.V., the manufacturer of the nutritional supplements, had no role in the design of the study, the collection and analysis of the data, or the preparation of manuscripts. All vouch for the accuracy of the data and the fidelity of the study to the protocol. COAST was a five-arm intervention study, where participants were randomly allocated, with equal probability and separately for men and women, to one of four active intervention groups or to a placebo group. Label claims of the nutritional content in the intervention supplements were as follows: Group 1, L (10 mg)+MZ (10 mg)+Z (2 mg) provided in one capsule; Group 2, L (10 mg)+MZ (10 mg)+Z (2 mg) provided in two capsules; […] Therefore, it was decided to present the dosages of the formulations as stated by label claim. […] Serum carotenoid concentrations were analyzed as the total concentrations (μmol/L) for each of the carotenoids in serum. […] Outcome variables were recorded at baseline and at 6 months. […] Calibration lines used, as well as lower and upper limits of quantification (LLOQ and ULOQ respectively), are as previously performed. Serum carotenoid analysis was completed in sixteen independent batches, with a maximum intra-day precision of 7.28%, measured as RSD, and an inter-day precision of 3.16% (RSD). […]

[3] = hens; cited from earlier work

Compound	increase of serum L ([1]; AREDS 2 study) [%]	increase of serum L ([1]; CREST AMD study) [%]	serum response compared to free carotenoid as crystals [2]	deposition of carotenoid in egg yolk compared to free form [3]	serum response compared to group supplemented with free L ([1]; previous clinical trial)	MPOD improvements compared to free L supplementation ([1]; previous report)
CC1=C[C@H](O)CC(C)(C)[C@H]1/C=C/C(C)=C/C=C/C(C)=C/C=C/C=C(C)/C=C/C=C(C)/C=C/C1=C(C)C[C@@H](O)CC1(C)C [L, (3R,3′R,6R)-lutein, reference compound]	200	304				
CC(=O)O[C@@H]1CC(C)=C(/C=C/C(C)=C/C=C/C(C)=C/C=C/C=C(C)/C=C/C=C(C)/C=C/[C@H]2C(C)=C[C@H](OC(C)=O)CC2(C)C)C(C)(C)C1 [Ld, (3R,3′R,6R)-lutein diacetate]			remained similar	similar	slightly higher and not statistically different	superior and significant response
CC(=O)OC1CC(C)=C(C=CC(C)=CC=CC(C)=CC=CC=C(C)C=CC=C(C)C=CC2=C(C)CC(OC(C)=O)CC2(C)C)C(C)(C)C1 (stereo not drawn) [MZd, meso-zeaxanthin diacetate]			significantly greater	greater capability		
CC(=O)O[C@@H]1CC(C)=C(/C=C/C(C)=C/C=C/C(C)=C/C=C/C=C(C)/C=C/C=C(C)/C=C/C2=C(C)C[C@@H](OC(C)=O)CC2(C)C)C(C)(C)C1 [Zd, (3R,3′R)-zeaxanthin diacetate]			significantly greater	greater capability		
